# Data taken from patent US12103945B2, “Crystalline form of vascular leakage blocker compound” (Curacle Co., Ltd., priority 2020, dated 2024).
# Assays:
# Format in all cases: physicochemical
# [1] = Solubility assay by visual observation and manual dilution; settings: thermodynamic from solid, room temperature
# Description: Solubility assay was performed by visual observation and manual dilution at room temperature. […] The total amount of the solvent was recorded to calculate the solubility for each solvent.
# [2] = Crystalline form change on storage at room temperature (XRPD)
# Description: The X-ray powder diffraction (XRPD) pattern was obtaine d on a Shimadzu XRD-6000 instrument.
# • Tube: Cu: K-α (λ=1.54056 Å) • Generator: Voltage: 40 kV; Current: 30 mA • Scan Scope: 3˜50 deg. Scanning rate: 5 deg./min
# […] Particularly, XRPD was performed according to the method described in <Experimental Methods> 1. X-ray Powder Diffractometer (XRPD).
# [3] = Dynamic vapor sorption (DVS); settings: for Mass change (%) Desorption / Mass change (%) Sorption / Mass change (%) Hysteresis: 25° C.
# Description: Around 10 mg of samples were used to test its moisture sorption/desorption profiles.
# • Temperature: 25° C. • Equilibrium: dm/dt: 0.01%/min • Relative Humidity (RH) measurement stepscope: 0%˜95%˜0% RH • Relative Humidity (RH) measurement step: 5% RH • Samples: 10-20 mg • Hygroscopicity Classification • Hygroscopicity: Water Sorption Criterion • Deliquescent: Sufficient water is absorbed to form a liquid. • Very hygroscopic: W %≥15% • Hygroscopic: W %≥2% • Slightly hygroscopic: W %≥0.2% • Non-hygroscopic: W %<0.2% • 25±1° C., 80±2% RH
# [4] = Thermal gravimetric analysis (TGA); settings: heating from room temperature to 120° C.
# Description: Samples of compounds (4˜6 mg) were weighed into the pan, and heated under nitrogen purge.
# • Ramp rate: 20° C./min over the range 30° C.˜300° C. • Nitrogen purge: 50 mL/min • Samples: About 5 mg
# [5] = Accelerated stability test (HPLC purity); settings: for Purity (%): 40 ± 2° C. & 75 ± 5% RH
# Description: • Column: Agilent Zorbax Rx C8, 4.6 mm×250 mm, 5.0 μm • Moving phase: 85% acetonitrile • Flow rate: 1.0 mL/rain • Wavelength: 205 nm • Injection volume: 10 λL • Column temperature: 30° C. • Diluent: 100% acetonitrile
# In order to confirm the stability of the novel crystalline form according to the present invention, the stability of the crystalline form I prepared in Example 1 was evaluated using a liquid chromatography method under the analysis conditions of <Experimental Methods>6. High performance liquid chromatography (HFLC). The results of the accelerated stability test from 1 month to 6 months in the conditions of 40±2° C. & 75±5 RH are shown in Table 15 below.
# [6] = stored at room temperature for 2 months
# [7] = stored at room temperature for 3 months
smiles,measurement,setting,value
"COC(=O)CCC/C=C(\C)[C@H]1CC[C@H]2[C@@H]3CC=C4C[C@@H](OC5C=C[C@H](OC(C)=O)[C@@H](COC(C)=O)O5)CC[C@]4(C)[C@H]3CC[C@]12C (stereo partly drawn) [compound 1, (E)-methyl 6-((3S,8S,9S,10R,13S,14S,17R)-3-(((5S,6R)-5-acetoxy-6-(acetoxymethyl)-5,6-dihydro-2H-pyran-2-yl)oxy)-10,13-dimethyl-2,3,4,7,8,9,10,11,12,13,14,15,16,17-tetradecahydro-1H-cyclopenta[a]phenanthrene-17-yl)hept-5-enoate]",solubility,"[1]; organic solvent or mixture, solvent 1,4-dioxane",> 100 mg/mL
same,solubility,"[1]; organic solvent or mixture, solvent 1-butanol",26 to 52 mg/mL
same,solubility,"[1]; organic solvent or mixture, solvent 2-methyl-tetrahydrofuran",> 93.2 mg/mL
same,solubility,"[1]; organic solvent or mixture, solvent Acetone",> 100 mg/mL
same,solubility,"[1]; organic solvent or mixture, solvent Acetonitrile (ACN)",> 82.6 mg/mL
same,solubility,"[1]; organic solvent or mixture, solvent Anisole",> 100 mg/mL
same,solubility,"[1]; organic solvent or mixture, solvent Butyl acetate",> 88.6 mg/mL
same,solubility,"[1]; organic solvent or mixture, solvent Chloroform",> 100 mg/mL
same,solubility,"[1]; organic solvent or mixture, solvent Cyclohexane",26 to 40 mg/mL
same,solubility,"[1]; organic solvent or mixture, solvent Dichloromethane (DCM)",> 100 mg/mL
same,solubility,"[1]; organic solvent or mixture, solvent Dimethyl sulfoxide (DMSO)",30 to 45 mg/mL
same,solubility,"[1]; organic solvent or mixture, solvent Ethanol (EtOH)",5.1 to 6.4 mg/mL
same,solubility,"[1]; organic solvent or mixture, solvent Ethyl acetate (EtOAc)",> 100 mg/mL
same,solubility,"[1]; organic solvent or mixture, solvent Isopropanol (IPA)",5.1 to 6.8 mg/mL
same,solubility,"[1]; organic solvent or mixture, solvent Isopropyl acetate (iPrOAc)",> 100 mg/mL
same,solubility,"[1]; organic solvent or mixture, solvent Isopropyl ether",65.2 to 130 mg/mL
same,solubility,"[1]; organic solvent or mixture, solvent Methanol (MeOH)",6.9 to 8.2 mg/mL
same,solubility,"[1]; organic solvent or mixture, solvent Methyl ethyl ketone (MEK)",> 100 mg/mL
same,solubility,"[1]; organic solvent or mixture, solvent Methyl tert-butyl ether (MTBE)",> 85.4 mg/mL
same,solubility,"[1]; organic solvent or mixture, solvent N,N-dimethylformamide (DMF)",> 100 mg/mL
same,solubility,"[1]; organic solvent or mixture, solvent Petroleum ether",11.5 to 15.3 mg/mL
same,solubility,"[1]; organic solvent or mixture, solvent Tetrahydrofuran (THF)",> 76 mg/mL
same,solubility,"[1]; organic solvent or mixture, solvent Toluene",> 83 mg/mL
same,solubility,"[1]; organic solvent or mixture, solvent n-heptane",6.3 to 8.8 mg/mL
same,solubility,"[1]; organic solvent or mixture, solvent n-propanol",26.1 to 52.1 mg/mL
same,solubility,[1]; solvent Water (H2O),< 1 mg/mL
"COC(=O)CCC/C=C(\C)[C@H]1CC[C@H]2[C@@H]3CC=C4C[C@@H](O[C@@H]5C=C[C@H](OC(C)=O)[C@@H](COC(C)=O)O5)CC[C@]4(C)[C@H]3CC[C@]12C [crystalline form V, (E)-methyl 6-((3S,8S,9S,10R,13S,14S,17R)-3-(((2S,5S,6R)-5-acetoxy-6-(acetoxymethyl)-5,6-dihydro-2H-pyran-2-yl)oxy)-10,13-dimethyl-2,3,4,7,8,9,10,11,12,13,14,15,16,17-tetradecahydro-1H-cyclopenta[a]phenanthrene-17-yl)hept-5-enoate]",Change of crystalline form (XRPD pattern),[2]; [6],a novel crystalline form having the XRPD pattern different from that of the crystalline form V was confirmed
same,Change of crystalline form (XRPD pattern),[2]; [7],a novel crystalline form having the XRPD pattern different from that of the crystalline form V was confirmed
"COC(=O)CCC/C=C(\C)[C@H]1CC[C@H]2[C@@H]3CC=C4C[C@@H](O[C@@H]5C=C[C@H](OC(C)=O)[C@@H](COC(C)=O)O5)CC[C@]4(C)[C@H]3CC[C@]12C [crystalline form I, (E)-methyl 6-((3S,8S,9S,10R,13S,14S,17R)-3-(((2S,5S,6R)-5-acetoxy-6-(acetoxymethyl)-5,6-dihydro-2H-pyran-2-yl)oxy)-10,13-dimethyl-2,3,4,7,8,9,10,11,12,13,14,15,16,17-tetradecahydro-1H-cyclopenta[a]phenanthrene-17-yl)hept-5-enoate]",Mass change (%) Desorption,[3]; Target RH 0.0%,−0.1124%
same,Mass change (%) Sorption,[3]; Target RH 0.0%,0.0000%
same,Mass change (%) Desorption,[3]; Target RH 5.0%,−0.1004%
same,Mass change (%) Hysteresis,[3]; Target RH 5.0%,−0.1074%
same,Mass change (%) Sorption,[3]; Target RH 5.0%,0.0070%
same,Mass change (%) Desorption,[3]; Target RH 10.0%,−0.0904%
same,Mass change (%) Hysteresis,[3]; Target RH 10.0%,−0.1034%
same,Mass change (%) Sorption,[3]; Target RH 10.0%,0.0131%
same,Mass change (%) Desorption,[3]; Target RH 15.0%,−0.0773%
same,Mass change (%) Hysteresis,[3]; Target RH 15.0%,−0.0964%
same,Mass change (%) Sorption,[3]; Target RH 15.0%,0.0191%
same,Mass change (%) Desorption,[3]; Target RH 20.0%,−0.0673%
same,Mass change (%) Hysteresis,[3]; Target RH 20.0%,−0.0906%
same,Mass change (%) Sorption,[3]; Target RH 20.0%,0.0231%
same,Mass change (%) Desorption,[3]; Target RH 25.0%,−0.0492%
same,Mass change (%) Hysteresis,[3]; Target RH 25.0%,−0.0803%
same,Mass change (%) Sorption,[3]; Target RH 25.0%,0.0311%
same,Mass change (%) Desorption,[3]; Target RH 30.0%,−0.0402%
same,Mass change (%) Hysteresis,[3]; Target RH 30.0%,−0.0723%
same,Mass change (%) Sorption,[3]; Target RH 30.0%,0.0321%
same,Mass change (%) Desorption,[3]; Target RH 35.0%,−0.0261%
same,Mass change (%) Hysteresis,[3]; Target RH 35.0%,−0.0592%
same,Mass change (%) Sorption,[3]; Target RH 35.0%,0.0331%
same,Mass change (%) Desorption,[3]; Target RH 40.0%,−0.0131%
same,Mass change (%) Hysteresis,[3]; Target RH 40.0%,−0.0582%
same,Mass change (%) Sorption,[3]; Target RH 40.0%,0.0452%
same,Mass change (%) Desorption,[3]; Target RH 45.0%,0.0000%
same,Mass change (%) Hysteresis,[3]; Target RH 45.0%,−0.0512%
same,Mass change (%) Sorption,[3]; Target RH 45.0%,0.0512%
same,Mass change (%) Desorption,[3]; Target RH 50.0%,0.0141%
same,Mass change (%) Hysteresis,[3]; Target RH 50.0%,−0.0462%
same,Mass change (%) Sorption,[3]; Target RH 50.0%,0.0602%
same,Mass change (%) Desorption,[3]; Target RH 55.0%,0.0261%
same,Mass change (%) Hysteresis,[3]; Target RH 55.0%,−0.0381%
same,Mass change (%) Sorption,[3]; Target RH 55.0%,0.0642%
same,Mass change (%) Desorption,[3]; Target RH 60.0%,0.0392%
same,Mass change (%) Hysteresis,[3]; Target RH 60.0%,−0.0351%
same,Mass change (%) Sorption,[3]; Target RH 60.0%,0.0743%
same,Mass change (%) Desorption,[3]; Target RH 65.0%,0.0522%
same,Mass change (%) Hysteresis,[3]; Target RH 65.0%,−0.0291%
same,Mass change (%) Sorption,[3]; Target RH 65.0%,0.0813%
same,Mass change (%) Desorption,[3]; Target RH 70.0%,0.0663%
same,Mass change (%) Hysteresis,[3]; Target RH 70.0%,−0.0231%
same,Mass change (%) Sorption,[3]; Target RH 70.0%,0.0893%
same,Mass change (%) Desorption,[3]; Target RH 75.0%,0.0823%
same,Mass change (%) Hysteresis,[3]; Target RH 75.0%,−0.0191%
same,Mass change (%) Sorption,[3]; Target RH 75.0%,0.1014%
same,Mass change (%) Desorption,[3]; Target RH 80.0%,0.0964%
same,Mass change (%) Hysteresis,[3]; Target RH 80.0%,−0.0131%
same,Mass change (%) Sorption,[3]; Target RH 80.0%,0.1094%
same,Mass change (%) Desorption,[3]; Target RH 85.0%,0.1114%
same,Mass change (%) Hysteresis,[3]; Target RH 85.0%,−0.0080%
same,Mass change (%) Sorption,[3]; Target RH 85.0%,0.1195%
same,Mass change (%) Desorption,[3]; Target RH 90.0%,0.1325%
same,Mass change (%) Hysteresis,[3]; Target RH 90.0%,−0.0010%
same,Mass change (%) Sorption,[3]; Target RH 90.0%,0.1335%
same,Mass change (%) Desorption,[3]; Target RH 95.0%,0.1436%
same,Mass change (%) Sorption,[3]; Target RH 95.0%,0.1436%
same,Hygroscopicity classification,"[3]; 25±1° C., 80±2% RH",non-hygroscopic
same,water sorption,[3]; at 80% RH,0.11%
same,mass loss (TGA),[4],0.078%
same,Purity (%),[5]; storage time 1 month,99.8%
same,Purity (%),[5]; storage time 3 months,99.8%
same,Purity (%),[5]; storage time 6 months,99.8%
same,Purity (%),[5]; storage time Initial,99.8%
same,Accelerated stability (result in words),"[5]; 40±2° C. & 75±5 RH, 1 month to 6 months",stably maintained for up to 6 months without affecting the purity
"COC(=O)CCC/C=C(\C)[C@H]1CC[C@H]2[C@@H]3CC=C4C[C@@H](O[C@@H]5C=C[C@H](OC(C)=O)[C@@H](COC(C)=O)O5)CC[C@]4(C)[C@H]3CC[C@]12C [crystalline form IV, (E)-methyl 6-((3S,8S,9S,10R,13S,14S,17R)-3-(((2S,5S,6R)-5-acetoxy-6-(acetoxymethyl)-5,6-dihydro-2H-pyran-2-yl)oxy)-10,13-dimethyl-2,3,4,7,8,9,10,11,12,13,14,15,16,17-tetradecahydro-1H-cyclopenta[a]phenanthrene-17-yl)hept-5-enoate]",Change of crystalline form (XRPD pattern),[2]; [6],a novel crystalline form having the XRPD pattern different from that of the crystalline form IV was confirmed
same,Change of crystalline form (XRPD pattern),[2]; [7],a novel crystalline form having the XRPD pattern different from that of the crystalline form IV was confirmed
